In general, pKb refers to the Kb on a negative log10 scale, so that one unit is a factor of ten.

Data set [1] is described as follows: Dissociation constants disclosed in published references. The note with it: converted from literature pKb 9.20. It is filed as physicochemical. From the text: For example, Bate-Smith (Bate-Smith, E. C., J. Physiol. (London) 92, 336 (1938)) discloses the results that pK2 of carnosine was 6.83, and Doutsch et al. (Dutch, A., Eggleton, P., Biochem. J. 32, 209 (1938)), discloses the results that pK2 of anserin was 7.04. In these references, pK2 means the dissociation constant of imidazole group and corresponds to pKR in Table 1. […] If converted to pKR, it is 4.8. Thus, each pKR for anserine, carnosine and creatinine in Table 1 was well consistent with the data described in the references.

For data set [2] the following is noted: cited from earlier work.
Data set [3] in a line: Titration of 0.1 M aqueous solutions with 0.1 N sulfuric acid and 0.1 N sodium hydroxide to determine dissociation constants and charge state. It is filed as physicochemical. The source says:
In view of the difference between the adsorption behaviors of imidazole dipeptides, including anserine and carnosine, and creatinine on a strongly acidic cation exchange resin, each electrical dissociation behavior of the compounds with respect to pH values was experimentally measured by the titration method as mentioned below. The terms “pK” and “pI” are the dissociation constant and the isoelectric point, respectively.
The 0.1 M aqueous solutions of L-anserine, L-carnosine and creatinine were prepared and the titration curves were generated with 0.1 N sulfuric acid and 0.1 N sodium hydroxide according to known methods. From each titration curve, pK1, pKR and pK2 were determined.
In Table 1, with respect to anserine and carnosine, pK1 represents the dissociation of carboxyl group, pKR represents the dissociation of imidazole group, and pK2 represents the dissociation of amino group. With respect to creatinine, pKR represents the dissociation of imidazole group.
Based on the measured results, the state of the charge of anserine, carnosine and creatinine at each pH value is shown in FIG. 1.

Where [4] appears, read: 0.1 M aqueous solution, titration curve.

`CN1CC(=O)NC1=N` [Creatinine, creatinine]: in data set [1], the “pKR converted from pKb” value stood at 4.8. Moreover, the negative logarithm of the Kb (pKb) in data set [2] (literature (Eadie and Hunter 1926)) is given as 9.20.

Turning to `NCCC(=O)N[C@@H](Cc1c[nH]cn1)C(=O)O` [Carnosine, β-alanyl histidine], the “pK2 (dissociation constant of imidazole group, corresponds to pKR in Table 1)” value in data set [2] (literature (Bate-Smith 1938; Deutsch and Eggleton 1938)) is given as 6.83. Also, in data set [3] (setting [4]), the “pI (isoelectric point)” value was 8.3, the “pK1 (dissociation of carboxyl group)” value is 2.8, the “pK2 (dissociation of amino group)” value amounted to 9.8 and the “pKR (dissociation of imidazole group)” value is given as 6.8. In addition, in data set [3] (pH 5, FIG. 1), the positive charge was determined as 1 valent. In data set [3] (pH 7, FIG. 1), this molecule gave a positive charge of 0.5 valent. In data set [3] (pH 8, FIG. 1), the positive charge is reported as 0.1 valent.

The record behind these values is patent US20210198313A1, “METHOD OF PRODUCING IMIDAZOLE DIPEPTIDES” (Tokai Bussan Co., Ltd., priority 2019, published 2021).
